In patent publication US20150098997A1, “Methods and Compositions for Treating Attention Deficit Hyperactivity Disorder, Anxiety and Insomnia Using Dexmedetomidine Transdermal Compositions” (Teikoku Pharma USA, Inc., priority 2013, published 2015):

Experiment: Solubility of dexmedetomidine in adhesives and solubility enhancers
Assay type: physicochemical

SMILES: Cc1cccc([C@H](C)c2cnc[nH]2)c1C [dexmedetomidine, Dexmedetomidine]
- solubility of dexmedetomidine (in Duro-Tak 87-2979 (acid/hydroxyl functionalized acrylate adhesive)): less than 2%
- solubility of dexmedetomidine (in Duro-Tak 387/87-2353 (acid functionalized acrylate adhesive)): 10-15%
- solubility of dexmedetomidine (in hydroxyl functionalized acrylate polymer): less than 1%
- solubility of dexmedetomidine (in lauryl lactate): 5 to 10%
- solubility of dexmedetomidine (in levulinic acid): ~60%
- solubility of dexmedetomidine (in oleic acid): ~40%
- solubility of dexmedetomidine (in propylene glycolmonolaurate): 5 to 10%
